These results are taken from patent US20140378416A1, “SILYL-CONTAINING HETEROCYCLIC COMPOUNDS AND METHODS OF USE THEREOF FOR THE TREATMENT OF VIRAL DISEASES” (priority 2011, published 2014).

Each structure is given as a SMILES string. Read-outs that look alike come from different tables or passages of the source. Bounds are passed on as bounds.

The subject of assay [1] is HCV replicon 1a Y93H. Put plainly: Cell-based HCV replicon assay (TaqMan), genotype 1a Y93H mutant replicon. As to conditions: Hepatitis C virus, 72 h, read-out: 1a Y93H EC90, HCV 1a Y93H mutant replicon cells, replicon RNA by TaqMan on day 3; EC90 = concentration for ΔCT=3.2 over baseline.
Assay [2] concerns HCV replicon 2b. Briefly: Cell-based HCV replicon assay (TaqMan), genotype 2b replicon. The settings on record: EC90 = concentration for ΔCT=3.2 over baseline.
In assay [3] the test system is HCV replicon 1b. Briefly: Cell-based HCV replicon assay (TaqMan), genotype 1b replicon. As to conditions: HCV 1b replicon cells, replicon RNA by TaqMan on day 3, EC90 = concentration for ΔCT=3.2 over baseline.
Assay [4] has as its system HCV replicon 1a. Put plainly: Cell-based HCV replicon assay (TaqMan), genotype 1a replicon. The settings on record: HCV 1a replicon cells, replicon RNA by TaqMan on day 3, EC90 = concentration for ΔCT=3.2 over baseline.
The mark [5] stands for this setting: Hepatitis C virus, 72 h, read-out: 2b EC90, HCV 2b replicon cells, replicon RNA by TaqMan on day 3.

Regarding `COC(=O)N[C@H](C(=O)N1C[Si](C)(C)C[C@H]1c1ncc(-c2ccc(-c3ccc(-c4cnc([C@@H]5C[C@H]6C[C@H]6N5C(=O)[C@@H](NC(=O)OC)C(C)C)[nH]4)cc3)cc2)[nH]1)C(C)C` [Compound 8], the EC90 in assay [1] was over 100 nM; in assay [2] (setting [5]), 249 nM; in assay [3] (Hepatitis C virus, 72 h), 0.002 nM; in assay [4] (Hepatitis C virus, 72 h) it was 0.029 nM.
On to `CCC[C@H](NC(=O)OC)C(=O)N1CCC[C@H]1c1ncc(-c2ccc(-c3ccc(-c4cnc([C@@H]5C[Si](C)(C)CN5C(=O)[C@H](CCC)NC(=O)OC)[nH]4)cc3)cc2)[nH]1` [Compound 15], for which the EC90 is 542 nM in assay [1]; 515 nM in assay [2] (setting [5]); 45.8 nM in assay [3] (Hepatitis C virus, 72 h); 2.43 nM in assay [4] (Hepatitis C virus, 72 h).
Taken in the same sequence, the figures for `COC(=O)N[C@H](C(=O)N1CCC[C@H]1c1ncc(-c2ccc(-c3ccc(-c4cnc([C@@H]5C[Si](C)(C)CN5C(=O)[C@@H](NC(=O)OC)C5CCCC5)[nH]4)cc3)cc2)[nH]1)C1CCCC1` [Compound 24] were 1000 nM, 382 nM, 17.3 nM and 2.91 nM.
The like results for `COC(=O)N[C@H](C(=O)N1CCC[C@H]1c1ncc(-c2ccc(-c3ccc(-c4cnc([C@@H]5C[Si](C)(C)CN5C(=O)[C@@H](NC(=O)OC)[C@@H](C)OC)[nH]4)cc3)cc2)[nH]1)[C@@H](C)OC` [Compound 25] were, in that order, 1000 nM, 136 nM, 4.77 nM and 0.72 nM.
With `CC[C@H](C)[C@H](NC(=O)OC)C(=O)N1CCC[C@H]1c1ncc(-c2ccc(-c3ccc(-c4cnc([C@@H]5C[Si](C)(C)CN5C(=O)[C@@H](NC(=O)OC)[C@@H](C)CC)[nH]4)cc3)cc2)[nH]1` [Compound 14], the EC90 in assay [1] worked out at 1000 nM; in assay [2] (read-out: 2b EC90, HCV 2b replicon cells, replicon RNA by TaqMan on day 3), 1000 nM; in assay [3], 23.8 nM; in assay [4] it was 3.22 nM.
Consider `COC(=O)N[C@H](C(=O)N1C[Si](C)(C)C[C@H]1c1nc(Cl)c(-c2ccc(-c3ccc(-c4[nH]c([C@@H]5C[C@H]6C[C@H]6N5C(=O)[C@@H](NC(=O)OC)C(C)C)nc4F)cc3)cc2)[nH]1)C(C)C` [Compound 45], for which the EC90 in assay [1] stood at 144 nM; in assay [2] (setting [5]), 66 nM; in assay [3] (Hepatitis C virus, 72 h) it was 0.017 nM; in assay [4] (Hepatitis C virus, 72 h) it was 0.13 nM.
In the case of `COC(=O)N[C@H](Cc1c[nH]c2ccccc12)C(=O)N1CCC[C@H]1c1ncc(-c2ccc(-c3ccc(-c4cnc([C@@H]5C[Si](C)(C)CN5C(=O)[C@@H](Cc5c[nH]c6ccccc56)NC(=O)OC)[nH]4)cc3)cc2)[nH]1` [Compound 16], the EC90 worked out at 500 nM in assay [1]; 1000 nM in assay [2] (setting [5]); 1000 nM in assay [3] (Hepatitis C virus, 72 h); 1000 nM in assay [4] (Hepatitis C virus, 72 h).
For `COC(=O)N[C@H](C(=O)N1CCC[C@@H]1c1ncc(-c2ccc(-c3ccc(-c4cnc([C@H]5C[Si](C)(C)CN5C(=O)[C@@H](NC(=O)OC)C5CC5)[nH]4)cc3)cc2)[nH]1)C1CC1` [Compound 22], the EC90 worked out at 1000 nM in assay [1]; 1000 nM in assay [2] (setting [5]); 1000 nM in assay [3] (Hepatitis C virus, 72 h); 1000 nM in assay [4] (Hepatitis C virus, 72 h).
